Test results: patent US10101331B2, “Methods of evaluating patients using E-cadherin or vimentin” (AGIOS PHARMACEUTICALS, INC, priority 2012, dated 2018)

Test system: NCI-H358 cell line
Test: TGFβ treatment of NCI-H358, western blot phenotype
Type: cell-based
Method: FIG. 4A depicts a western blot analysis of the non-small cell lung cancer cell line NCI-H358 for protein levels of E-cadherin, vimentin, PC ([…]), GLS (phosphate activated glutaminase), and actin (control).
In order to better understand the contribution of mesenchymal versus epithelial phenotype to GLS dependence, the NCI-H358 cell line was treated with TGFβ and the phenotype assayed.

## TGFβ: TGFβ used to induce EMT in the NCI-H358 cell line
E-cadherin/vimentin expression
  phenotype after TGFβ treatment: shift to a mesenchymal phenotype
TGFβ induced EMT
  increase in GAC protein levels in the mesenchymal variant: 2 fold
